{
  "source": "patent US20230333087A1",
  "about": "“METHODS FOR MONITORING PATIENT RESPONSE TO TREATMENT OF RETINAL OXIDATIVE DISEASES” (BioJiva LLC, priority 2022, published 2023)",
  "key": {"[1]": {"experiment": "Ocular D-DHA accretion and elimination (0.5% D-DHA diet 77 days, DHA wash-out 73 days)", "assay_type": "in vivo, C57BL/6J mice", "text": "To determine the pharmacokinetics of ocular D-DHA uptake, incorporation and elimination from the neural retina and RPE/choroid/sclera, twelve-week-old C57BL/6J mice were fed a 0.5% D-DHA containing diet (0.5 g D-DHA/100 g food, Table 3) for 77 days followed by an additional 73-day wash-out phase with DHA. At 4 weeks, >55% of the DHA in the retina was D-DHA rising to >60% at 5 weeks (FIG. 6A). At similar time points, D-DHA in the RPE/choroid/sclera was >80%. […] Based on the accretion and elimination data, two-month-old mice were fed with diets containing either D-DHA or natural DHA control for 1 week, 2 weeks, 3 weeks, and 4 weeks before the IVT injection of iron and saline control (FIG. 6B). In order to better approximate typical DHA doses in human prescription omega-3 supplements (e.g. 1,500 mg/day DHA in Lovaza), the D-DHA and DHA experimental mouse diets were adjusted to 0.25% instead of 0.5% for most of the study. On a 0.25% D-DHA diet, retinal D-DHA levels exceeded 50% at five weeks (52.2±1.5% and 55% of total DHA by our GC- and LC- based MS methods, respectively), regardless of whether eyes were injected with iron or control saline (Table 3).\nEleven-week-old C57BL/6J mice were purchased from Jackson Laboratory (Bar Harbor, ME) and housed in 20-25 lux light conditions under 12 h day/night cycle in the Dean McGee Eye Institute Animal Research Facility at the University of Oklahoma Health Sciences Center, Oklahoma City, OK. One week after acclimatization to the vivarium with ad libitum access to laboratory rodent chow and water the animals were assigned to experimental groups. To determine ocular D-DHA accretion, the mice were switched from the laboratory rodent diet to the experimental D-DHA supplemented diet containing 0.5% D-DHA plus 6.5% high oleic soybean oil (w/w) in AIN93G^51 (Research Diet, Inc. New Brunswick, NJ). The diets were vacuum packaged and stored at - 20° C. Food was replaced three times a week with fresh food ad libitum that is stored in 4° C. after it is taken from - 20° C. Based on previous estimated retina accretion kinetics, retina, optic nerve and eye cups containing sclera, retinal pigment epithelium-choroid (RPE-choroid) were dissected from 6 mice (3 females and 3 males) at different time points during eleven weeks of D-DHA feeding. The tissues were snap frozen in liquid nitrogen, and stored in -80° C. until fatty acid analyses. After eleven weeks (77 days) on D-DHA diet, the animals were switched to the washout diet containing 0.5% DHA plus 6.5% high oleic soybean oil (w/w) in AIN93G and maintained on this diet until euthanasia at three different time points up to 73 days, when tissues were harvested for fatty acid analysis. All animal procedures were approved by the University of Oklahoma Health Sciences Center Institutional Animal Care and Use Committee.\nThree types of mass spectrometric analysis were performed to confirm repeatability of results. In the first, lipids were extracted from retinas by a modified Folch method (CHCl3/CH3OH, 2:1). derivatized to fatty acid methyl esters (FAME), and analyzed by high resolution capillary gas chromatography and specialized chemical ionization tandem mass spectrometry. Baseline resolved DHA and D-DHA total ion signal were integrated, and the proportions of D-DHA/total DHA were calculated. […] Lipids were extracted and saponified, and analyzed by ESI-LC/MS on a 4000 QTrap (Sciex) operating in enhanced negative mode over an m/z range of 320 - 345 and a scan rate of 250 /sec. […]"}, "[2]": {"test_system": "lipid peroxidation in a lipid membrane", "details": "present at 1% fraction of the total PUFAs in a lipid membrane in vitro; cited from earlier work"}},
  "data": [
    {"smiles": "[2H]C([2H])(/C=C\\CC)/C=C\\C([2H])([2H])/C=C\\C([2H])([2H])/C=C\\C([2H])([2H])/C=C\\C([2H])([2H])/C=C\\CCC(=O)OCC", "note": "[D-DHA, 6,6,9,9,12,12,15,15,18,18-D10-(4Z,7Z,10Z,13Z,16Z, 19Z)-docosa 4,7,10,13,16, 19-hexaenoic acid ethyl ester]", "values": [
      {"measurement": "% of the DHA in the retina that was D-DHA", "setting": "[1]; 0.5% D-DHA diet, 4 weeks", "value": "> 55", "unit": "%"},
      {"measurement": "% of the DHA in the retina that was D-DHA", "setting": "[1]; 0.5% D-DHA diet, 5 weeks", "value": "> 60", "unit": "%"},
      {"measurement": "D-DHA in the RPE/choroid/sclera", "setting": "[1]; 0.5% D-DHA diet, similar time points (4-5 weeks)", "value": "> 80", "unit": "%"},
      {"measurement": "washout in the RPE/choroid/sclera", "setting": "[1]; DHA wash-out diet, compared with retina", "value": "more rapid than retina"},
      {"measurement": "uptake and elimination kinetics", "setting": "[1]; neural retina and RPE/choroid/sclera", "value": "classic first order kinetics"},
      {"measurement": "inhibition of LPO in liposomes", "setting": "[2]", "value": "efficiently inhibited the LPO"}
    ]}
  ]
}
